Experimental data as given in patent US7153525B1, “Microemulsions as precursors to solid nanoparticles” (The University of Kentucky Research Foundation, priority 2000, dated 2006).

How the values were obtained:
[1] = Solubility of fluorosurfactants in perflubron; details: PDFOA at 25° C.
[2] = Droplet and particle size by photon correlation spectroscopy; format: physicochemical
Method: Modeling of E/F microemulsions: An ethanol-in-fluorocarbon(E/F) microemulsion was made having the following components: perflubron (0.7382 g), PDFOA (0.3195 g), and ethanol (0.3603 g). The weight of ethanol corresponded to 25.4% w/w of the final microemulsionor 65.7% of the microemulsion window (see FIG. 2). The average droplet size of 34.9 nm determined by photon correlation spectroscopy (dynamic light scattering at 11.3° for 300 seconds) agreed very well with the predicted ethanol droplet size based on simple mathematical modeling of surfactant-coated ethanol droplets. The total surface area of ethanol droplets that have an average diameter of 34.9 nm can be calculated in a series of equations as follows: Volume of one ethanol droplet=πd^3/6=2.226×10^−17 cm^3 (Equation 1) Total number of ethanol droplets=(0.3603 g[…])/[…]=1.989×10^16 droplets (Equation 2) Total surface area of each droplet=πd^2=3.827×10^−11 cm^2 (Equation 3) Total surface area of all ethanol droplets=1.989×10^16 droplets*3.827×10^−11 cm^2=760966 cm^2. (Equation 4) If we assume that PDFOA head-group (Mw 414.06 g/mol) occupies a space of 30 Å^2, then we can calculate the number of PDFOA molecules needed to cover the total surface area of all ethanol droplets from Equation 4 as: Total number of PDFOA molecules needed to cover the total surface area of all ethanol droplets=760966 cm^2/30×10^−16 cm^2=2.537×10^20 molecules of PDFOA. (Equation 5) Thus, 2.537×10^20 molecules of PDFOA would theoretically be needed to coat all of the surface area provided by all of the ethanol droplets. The ratio of ethanol to PDFOA molecules 65.7% through the microemulsion window was 10:1. […] The actual amount of PDFOA used to prepare the microemulsion was 0.3195 g which was within 3% of the predicted amount (0.3195 g/0.3282 g=0.973 or 97.3%) based on the measured droplet size of ethanol. Thus, this simple modeling supports the formation of a E/F microemulsion as well as the particle sizing method used.
To determine the existence of an oil-in-water microemulsion window for the microemulsion precursor, exactly two (2) milligrams of emulsifying wax were weighed accurately into ten separate 7-mL glass vials and melted at 50° C. on a temperature calibrated magnetic hot plate. Water (0.2 μm filtered) was then added (750–1000 μL) to form a homogeneous milky slurry in the stirring water at 50° C. To form the microemulsion precursor, the surfactant polyoxy 20 stearyl ether (100 mM) in water was added (0–250 μL) so that the final surfactant concentration ranged from 0 mM to 25 mM in the ten vials. The microemulsion precursor was then removed from heat (52–54° C.) and allowed to cool to 25° C. while stirring. […] Thus, an apparent microemulsion window was defined. One hundred (100) μL of each cooled system was taken and diluted with 900 μL water. The particle size of the diluted solid nanoparticles was determined using a Coulter N4 Plus Sub-Micron Particle Sizer at 20° C. by scattering light at 90° for 120 seconds. The particle sizes of systems with no surfactant added could not be determined since the systems contained precipitates that were greater than 3000 nm in diameter. […] To determine if the measured droplet sizes in either the microemulsion nanotemplate or the cured solid nanoparticles were due to the presence of surfactant micelles, samples were made as described above with no emulsifying wax and with final surfactant concentrations ranging from 0 mM to 100 mM in water. […] It is likely that the relatively heterogeneous nature of the polymeric surfactant makes the determination of its CMC difficult using conventional techniques. Photon correlation spectroscopy, using a Coulter N4 Plus Submicron Particle Sizer, was used to determine the existence and the size of the surfactant micelles.
Preparation of cationic nanoparticles made from microemulsion precursors: Exactly 2 mg of emulsifying wax was placed into six 7-ml glass scintillation vials. […]

[3] = Pseudo-phase diagram fluorosurfactant screen: ethanol incorporation in E/F microemulsions; format: physicochemical; details: maximum ethanol in stable clear E/F microemulsion
Method: Pseudo-Phase Diagrams: Fluorosurfactant Screen. Studies focused on E/F microemulsions that allowed for maximum solubilization of ethanol. […] Briefly, a small amount of ethanol was added to defined perflubron (X %)/(fluorosurfactant) (100-X %) mixtures in an attempt to solubilize ethanol and define the microemulsion window (i.e., portion of diagram that represents a clear system). […] While the mixture was stirring, ethanol was added in 5 μL (=[…] ethanol) aliquots. The clarity (transparency) of the systems as a function of the percentages of the three phases was plotted in order to define the microemulsion window, if any. This screen was repeated for each of the fluorosurfactant candidates.

| Compound | Solubility in perflubron [1] | Final (Ethanol) % w/w Solubilized in Perflubron/Fluorosurfactant (70/3 w/w) [3] | also measured |
| --- | --- | --- | --- |
| O=C(O)C(F)(F)C(F)(F)C(F)(F)C(F)(F)C(F)(F)C(F)(F)F [D5, Tridecafluoroheptanoicacid] | soluble |  |  |
| CC(=O)C=C(C)[O-].CC(=O)C=C(C)[O-].CC(=O)C=C(C)[O-].[Gd+3] [GdAcAc, Gadolinium acetylacetonate] |  |  | Effect of GdAcAc entrapment on particle sizes of cured nanoparticles ([2]; 0.1 mg to 1 mg in emulsifying wax and Brij 72 nanoparticles (2 mg/mL)): little or no effect; Particle size of cured nanoparticles ([2]; cooled to 25° C.): about 50 nm |
| OCCC(F)(F)C(F)(F)C(F)(F)C(F)(F)C(F)(F)C(F)(F)F [D3, Tridecafluoro-1-octanol] | soluble |  |  |
| COC(=O)C(F)(F)C(F)(F)C(F)(F)C(F)(F)C(F)(F)C(F)(F)C(F)(F)F [D8, Pentadecafluoromethyloctanoate] | soluble |  |  |
| O=C(O)C(F)(F)C(F)(F)C(F)(F)C(F)(F)C(F)(F)C(F)(F)C(F)(F)C(F)(F)C(F)(F)C(F)(F)C(F)(F)F [Perfluorododecanoicacid (D7), Perfluorododecanoicacid] |  | 59.2 % w/w |  |
| ASF-pal: asialofetuin derivatized with about 12 palmitate arms per molecule, hepatocyte-specific ligand |  |  | Size of micelles formed alone in water ([2]; 67 μg/mL): 3–15 nm; Size of larger aggregates formed alone in water ([2]; 1340 μg/mL): 40–300 nm; Size of micelles formed alone in water ([2]; 1340 μg/mL): 3–10 nm; Effect of adding ASF-pal on particle size of cured nanoparticles ([2]; ASF-pal added to 200 μg nanoparticles per mL, 1 hour at 25° C.): only a small effect |
| O=C(O)C(F)(F)C(F)(F)C(F)(F)C(F)(F)C(F)(F)C(F)(F)C(F)(F)F [PDFOA, Pentadecafluorooctanoicacid] | did not dissolve | up to 37.2 % w/w | Final (Ethanol) % w/w Solubilized in Perflubron/Fluorosurfactant (70/3 w/w) ([3]; listed as Pentadecafluorooctanoicacid (PDFOA)): 37.2 % w/w |
| O=C(O)C(F)(F)C(F)(F)C(F)(F)C(F)(F)C(F)(F)C(F)(F)C(F)(F)C(F)(F)C(F)(F)C(F)(F)C(F)(F)C(F)(F)C(F)(F)F [Perfluorotetradecanoicacid (D6), Perfluorotetradecanoicacid] |  | 66.6 % w/w |  |
